Test results: ChEMBL document CHEMBL1201862, “PubChem BioAssay data set” (2004)
The source made the active and inactive calls.

Assays:
[1] = blockers of HIV-1 envelope-mediated cell-cell fusion – cherry-pick, dose response (AID 652057); format: functional, cell-based
[2] = blockers of HIV-1 ZM109 envelope-driven cell-cell fusion – HeLa effector, CEM target cells, luciferase, cherry-pick, dose response (AID 652058); format: functional, cell-based;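 also: luciferase signal from HIV-1 Env mediated cell-cell fusion of effector and target cells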
[3] = off-target signal loss in HeLa-CEM21 co-culture – HeLa F-luc CTL cells, cherry-picked, counter-screen for HIV-1 Env fusion inhibitor project, dose response (AID 652040); format: functional, cell-based;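 also: potency for signal decrease marking cytotoxic or nonspecific inhibition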
[4] = HIV-1 AD8 envelope cell-cell fusion blockers – cherry-pick, dose response (AID 652062); format: functional, cell-based;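 also: luciferase signal from cell-cell fusion driven by HIV-1 clade B AD8 Env; potency is for inhibitors of fusion seen as a drop in luminescence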
[5] = target: T1, Heat shock factor protein 1 (Mus musculus, UniProt P38532); test: decrease of HSF1-responsive luciferase luminescence – cell-based, NIH3T3, dose retest, confirmation (AID 2382); format: functional;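 also: NIH3T3 fibroblasts with HSF1-driven luciferase reporter stressed by proteasome inhibitor MG132; luminescence from HSF1-driven luciferase expression after 8 hours of MG132 stress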
T1 sequence (P38532 whole entry): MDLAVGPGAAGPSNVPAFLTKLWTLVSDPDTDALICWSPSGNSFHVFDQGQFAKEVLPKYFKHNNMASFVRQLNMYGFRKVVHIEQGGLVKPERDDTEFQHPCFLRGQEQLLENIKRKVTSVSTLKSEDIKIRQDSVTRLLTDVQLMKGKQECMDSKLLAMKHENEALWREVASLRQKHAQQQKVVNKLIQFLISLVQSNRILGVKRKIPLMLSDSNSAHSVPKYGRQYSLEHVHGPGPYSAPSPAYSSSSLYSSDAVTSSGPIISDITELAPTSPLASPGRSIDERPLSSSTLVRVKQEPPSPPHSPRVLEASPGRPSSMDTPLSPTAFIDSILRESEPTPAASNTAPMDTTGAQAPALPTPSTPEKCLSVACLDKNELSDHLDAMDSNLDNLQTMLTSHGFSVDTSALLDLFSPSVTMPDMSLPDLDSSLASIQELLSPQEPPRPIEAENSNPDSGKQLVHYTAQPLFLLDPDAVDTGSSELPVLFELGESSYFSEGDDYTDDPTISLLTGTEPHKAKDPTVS

[6] = reduction of Shn3 3'UTR-driven luciferase in osteoblasts – cell-based, Clone20 osteoblasts, firefly luciferase, cherry-picked, dose response (AID 624132); format: functional;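 also: firefly luciferase luminescence from reporter carrying the Shn3 3'UTR in osteoblasts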
[7] = non-specific 3'UTR reporter inhibition in Clone20-Shn3RL – cell-based, Renilla luciferase, cherry-picked, counter-screen for Shn3 inhibitor project, dose response (AID 624133); format: functional
[8] = A549 cell cytotoxicity, dose response, cytotoxicity control, plate reader, cherry-pick, antagonist series (AID 743412); format: functional, cell-based
[9] = blockers of bursicon-stimulated LGR2 cAMP reporter – cell-based, HEK293, CRE-luciferase reporter, cherry pick, set 2, dose response (AID 743343); format: functional;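 also: transfected cells were stimulated with diluted bursicon conditioned medium after compound addition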
[10] = blockade of melanocortin 4 receptor signaling – cell-based, plate reader, cherry pick, counter-screen for LGR2 antagonist project, dose response (AID 743444); format: functional;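 also: transfected HEK 293 cells stimulated with alpha-MSH peptide; potency of inhibitors of the alpha-MSH evoked signal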
Protein RecA = target: T2, Protein RecA (Mycobacterium tuberculosis, UniProt P9WHJ3); test: Fluorescence Cell-Free Homogeneous Dose Retest to Identify Inhibitors of RecA-Intein Splicing Activity. [Related pubchem assays (depositor defined):AID2097, AID2223, AID489010, AID492950]; format: functional
T2 sequence (P9WHJ3 whole entry): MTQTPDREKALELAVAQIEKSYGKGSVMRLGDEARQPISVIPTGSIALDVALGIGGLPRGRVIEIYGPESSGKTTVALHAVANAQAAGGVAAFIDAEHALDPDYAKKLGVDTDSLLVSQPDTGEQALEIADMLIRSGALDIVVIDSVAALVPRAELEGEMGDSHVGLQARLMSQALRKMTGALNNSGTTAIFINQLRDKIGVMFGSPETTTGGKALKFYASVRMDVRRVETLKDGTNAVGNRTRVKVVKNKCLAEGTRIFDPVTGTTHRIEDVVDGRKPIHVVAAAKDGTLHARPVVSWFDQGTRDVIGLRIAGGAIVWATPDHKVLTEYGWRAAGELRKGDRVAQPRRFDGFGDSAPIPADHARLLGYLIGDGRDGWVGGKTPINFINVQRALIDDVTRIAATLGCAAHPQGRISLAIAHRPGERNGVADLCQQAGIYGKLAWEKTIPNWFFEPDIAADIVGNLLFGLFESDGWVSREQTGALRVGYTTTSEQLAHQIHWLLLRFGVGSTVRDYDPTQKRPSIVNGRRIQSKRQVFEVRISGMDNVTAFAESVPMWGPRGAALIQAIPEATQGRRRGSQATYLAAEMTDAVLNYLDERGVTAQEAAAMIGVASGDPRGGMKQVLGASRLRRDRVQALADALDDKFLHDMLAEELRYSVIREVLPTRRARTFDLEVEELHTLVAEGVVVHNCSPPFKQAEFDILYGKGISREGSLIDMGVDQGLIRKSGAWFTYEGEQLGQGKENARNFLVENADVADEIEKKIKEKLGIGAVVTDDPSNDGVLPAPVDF

[11] = target: T3, Histone-lysine N-methyltransferase NSD2 (Homo sapiens, UniProt O96028); format: biochemical
T3 sequence (O96028 whole entry): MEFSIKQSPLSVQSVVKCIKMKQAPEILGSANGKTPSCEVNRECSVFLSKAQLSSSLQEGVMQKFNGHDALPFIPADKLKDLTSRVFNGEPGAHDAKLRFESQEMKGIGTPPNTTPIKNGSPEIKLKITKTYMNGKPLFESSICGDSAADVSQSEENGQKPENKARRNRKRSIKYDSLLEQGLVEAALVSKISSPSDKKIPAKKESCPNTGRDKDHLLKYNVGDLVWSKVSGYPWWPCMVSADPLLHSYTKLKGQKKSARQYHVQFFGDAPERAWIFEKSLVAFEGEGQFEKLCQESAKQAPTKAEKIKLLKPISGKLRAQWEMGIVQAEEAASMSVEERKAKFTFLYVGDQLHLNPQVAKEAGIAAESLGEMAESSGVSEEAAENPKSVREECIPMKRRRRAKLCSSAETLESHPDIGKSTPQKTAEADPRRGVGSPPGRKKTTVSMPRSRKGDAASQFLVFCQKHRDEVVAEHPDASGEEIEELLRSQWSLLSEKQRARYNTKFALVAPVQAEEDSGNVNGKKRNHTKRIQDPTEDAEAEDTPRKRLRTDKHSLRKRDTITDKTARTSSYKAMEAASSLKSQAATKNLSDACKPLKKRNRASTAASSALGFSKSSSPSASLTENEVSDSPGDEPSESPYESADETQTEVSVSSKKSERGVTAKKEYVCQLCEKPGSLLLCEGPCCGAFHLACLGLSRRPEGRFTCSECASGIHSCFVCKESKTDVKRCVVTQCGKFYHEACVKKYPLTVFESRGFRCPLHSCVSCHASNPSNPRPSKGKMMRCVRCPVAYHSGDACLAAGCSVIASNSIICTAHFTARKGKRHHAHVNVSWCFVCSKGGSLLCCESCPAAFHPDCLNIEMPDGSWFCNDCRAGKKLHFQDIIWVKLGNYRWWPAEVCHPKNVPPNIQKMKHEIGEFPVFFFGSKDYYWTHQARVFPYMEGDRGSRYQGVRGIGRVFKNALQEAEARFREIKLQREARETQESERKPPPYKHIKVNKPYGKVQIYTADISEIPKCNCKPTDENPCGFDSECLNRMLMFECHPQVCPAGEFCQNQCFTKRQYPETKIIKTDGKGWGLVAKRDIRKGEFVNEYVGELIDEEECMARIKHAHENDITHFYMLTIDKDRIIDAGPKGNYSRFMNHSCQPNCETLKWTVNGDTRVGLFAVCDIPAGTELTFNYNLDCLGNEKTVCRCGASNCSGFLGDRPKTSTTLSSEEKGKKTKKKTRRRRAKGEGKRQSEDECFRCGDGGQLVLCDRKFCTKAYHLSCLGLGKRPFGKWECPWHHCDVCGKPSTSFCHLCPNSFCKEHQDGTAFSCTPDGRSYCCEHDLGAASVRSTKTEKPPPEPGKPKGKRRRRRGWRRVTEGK

cells [12] = format: functional, cell-based
cells [13] = format: functional, cell-based; remark: listed apart in the source
[14] = target: T4, Oxysterols receptor LXR-beta (Homo sapiens, UniProt P55055); format: functional, cell-based;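 also: agonist activity at LXR measured by a cell-based luminescence readout across a dose range, run as a counterscreen for daf-12 agonists; HEK293 cells with Gal4-LXR fusion and GAL4-driven luciferase reporter; potency for activation of Gal4-LXR reporter so compounds are agonists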
T4 sequence (P55055 whole entry): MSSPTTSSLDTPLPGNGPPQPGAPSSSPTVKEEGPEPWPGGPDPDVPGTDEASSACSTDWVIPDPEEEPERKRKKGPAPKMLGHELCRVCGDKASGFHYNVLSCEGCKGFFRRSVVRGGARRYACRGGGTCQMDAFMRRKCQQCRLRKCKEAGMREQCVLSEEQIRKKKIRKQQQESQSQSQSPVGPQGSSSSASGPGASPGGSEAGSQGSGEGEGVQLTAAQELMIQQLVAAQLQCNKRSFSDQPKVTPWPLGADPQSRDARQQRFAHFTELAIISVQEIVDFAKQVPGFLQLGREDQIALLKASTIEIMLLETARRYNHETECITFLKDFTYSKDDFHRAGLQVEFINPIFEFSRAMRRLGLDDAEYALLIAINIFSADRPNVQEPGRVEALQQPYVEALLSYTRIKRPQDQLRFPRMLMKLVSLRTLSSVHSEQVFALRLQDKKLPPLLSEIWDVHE

Protein skinhead-1 = target: T5, Protein skinhead-1 (Caenorhabditis elegans, UniProt P34707); format: functional
T5 sequence (P34707 whole entry): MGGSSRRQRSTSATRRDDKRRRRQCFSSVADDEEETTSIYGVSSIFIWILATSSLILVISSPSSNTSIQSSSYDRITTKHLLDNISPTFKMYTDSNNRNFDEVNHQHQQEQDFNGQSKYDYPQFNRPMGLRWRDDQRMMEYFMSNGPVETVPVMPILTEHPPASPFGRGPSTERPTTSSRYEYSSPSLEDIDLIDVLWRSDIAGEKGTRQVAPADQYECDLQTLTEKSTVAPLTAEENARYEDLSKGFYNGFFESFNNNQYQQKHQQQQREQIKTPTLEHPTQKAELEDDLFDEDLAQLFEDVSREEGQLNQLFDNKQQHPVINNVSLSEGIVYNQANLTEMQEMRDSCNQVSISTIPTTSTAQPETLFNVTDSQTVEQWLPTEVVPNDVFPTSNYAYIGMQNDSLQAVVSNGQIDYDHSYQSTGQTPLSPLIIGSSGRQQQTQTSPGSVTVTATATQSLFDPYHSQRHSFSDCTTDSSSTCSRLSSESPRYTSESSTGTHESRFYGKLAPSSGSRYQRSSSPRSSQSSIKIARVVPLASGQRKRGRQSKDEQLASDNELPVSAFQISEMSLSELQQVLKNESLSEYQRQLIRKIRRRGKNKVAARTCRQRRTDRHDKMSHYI

HEK293 = test: EBV LMP1 TES2 canonical NF-kB signalling blockers – cell-based, HEK293, luciferase, cherry-pick, dose response (AID 588343); format: functional; details: Homo sapiens
[15] = reduced cellular PGC1a acetyl-lysine signal – cell-based, cherry-picked samples, dose response (AID 720514); format: functional;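 also: potency may reflect raised or lowered acetylation signal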
Genome polyprotein = Genome polyprotein (dengue virus type 2, UniProt P29990); test: flavivirus cap methylation enzyme inhibition – biochemical, confirmation dose response, primary screen (AID 588689); format: functional
Sequence of Genome polyprotein (P29990 2492-3391 limits assumed): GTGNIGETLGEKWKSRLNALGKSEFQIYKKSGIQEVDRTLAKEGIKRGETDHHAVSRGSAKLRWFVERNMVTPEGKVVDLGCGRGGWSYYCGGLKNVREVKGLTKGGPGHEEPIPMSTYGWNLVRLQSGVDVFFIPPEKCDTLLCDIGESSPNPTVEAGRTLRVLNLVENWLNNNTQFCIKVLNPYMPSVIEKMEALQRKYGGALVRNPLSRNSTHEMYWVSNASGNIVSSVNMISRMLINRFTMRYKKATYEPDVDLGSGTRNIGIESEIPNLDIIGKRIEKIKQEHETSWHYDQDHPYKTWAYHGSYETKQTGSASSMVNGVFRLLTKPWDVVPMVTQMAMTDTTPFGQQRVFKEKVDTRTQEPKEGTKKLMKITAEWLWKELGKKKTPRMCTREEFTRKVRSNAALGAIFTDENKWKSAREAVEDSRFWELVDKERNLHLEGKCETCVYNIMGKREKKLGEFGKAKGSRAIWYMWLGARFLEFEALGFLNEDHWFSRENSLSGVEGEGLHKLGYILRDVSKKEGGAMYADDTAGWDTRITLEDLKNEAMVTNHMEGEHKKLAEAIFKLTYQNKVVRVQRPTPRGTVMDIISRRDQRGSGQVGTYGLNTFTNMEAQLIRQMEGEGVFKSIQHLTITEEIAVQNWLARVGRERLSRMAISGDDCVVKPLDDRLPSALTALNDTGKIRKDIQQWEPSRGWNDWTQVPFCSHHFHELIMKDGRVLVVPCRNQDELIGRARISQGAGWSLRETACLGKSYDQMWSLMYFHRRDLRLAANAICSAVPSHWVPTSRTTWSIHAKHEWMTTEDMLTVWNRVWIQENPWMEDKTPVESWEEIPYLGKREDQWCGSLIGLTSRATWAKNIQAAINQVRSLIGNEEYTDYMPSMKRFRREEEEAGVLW

Paired box protein Pax-8 = Paired box protein Pax-8 (Homo sapiens, UniProt Q06710); test: PAX8 transcriptional activity inhibition in RMG-I – RMG-I cells, luciferase, cherry-pick, dose response (AID 687027); format: functional, cell-based;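 also: luciferase reporter driven by Pax8 target thyroperoxidase promoter measured by SteadyGlo luminescence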
Sequence of Paired box protein Pax-8 (Q06710 whole entry): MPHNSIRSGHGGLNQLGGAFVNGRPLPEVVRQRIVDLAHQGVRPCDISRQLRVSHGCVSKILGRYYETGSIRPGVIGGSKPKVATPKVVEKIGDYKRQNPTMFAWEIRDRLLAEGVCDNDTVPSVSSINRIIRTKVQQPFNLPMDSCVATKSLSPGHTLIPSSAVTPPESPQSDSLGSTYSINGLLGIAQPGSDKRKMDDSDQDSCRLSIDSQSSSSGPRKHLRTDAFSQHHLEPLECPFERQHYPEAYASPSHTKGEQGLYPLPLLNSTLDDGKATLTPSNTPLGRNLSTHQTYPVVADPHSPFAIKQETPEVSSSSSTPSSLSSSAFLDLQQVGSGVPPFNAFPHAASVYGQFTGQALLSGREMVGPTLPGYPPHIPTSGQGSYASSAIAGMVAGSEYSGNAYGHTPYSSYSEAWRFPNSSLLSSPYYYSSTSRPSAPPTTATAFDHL

[16] = OVCAR-3 cell viability loss – plate reader, dry powder samples, PAX8 inhibitor project, dose response (AID 743044); format: functional, cell-based
[17] = IGROV1 cell killing – plate reader, dry powder samples, PAX8 inhibitor project, dose response (AID 743043); format: functional, cell-based; details: IGROV-1
[18] = OVCAR8 cell viability loss – plate reader, dry powder samples, PAX8 project, dose response (AID 743197); format: functional, cell-based; details: OVCAR-8
Large T antigen = Large T antigen (Simian virus 40, UniProt P03070); format: functional, Betapolyomavirus macacae;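 also: Confirmatory-stage PubChem screen for compounds that inhibit SV40 T antigen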
Sequence of Large T antigen (P03070 whole entry): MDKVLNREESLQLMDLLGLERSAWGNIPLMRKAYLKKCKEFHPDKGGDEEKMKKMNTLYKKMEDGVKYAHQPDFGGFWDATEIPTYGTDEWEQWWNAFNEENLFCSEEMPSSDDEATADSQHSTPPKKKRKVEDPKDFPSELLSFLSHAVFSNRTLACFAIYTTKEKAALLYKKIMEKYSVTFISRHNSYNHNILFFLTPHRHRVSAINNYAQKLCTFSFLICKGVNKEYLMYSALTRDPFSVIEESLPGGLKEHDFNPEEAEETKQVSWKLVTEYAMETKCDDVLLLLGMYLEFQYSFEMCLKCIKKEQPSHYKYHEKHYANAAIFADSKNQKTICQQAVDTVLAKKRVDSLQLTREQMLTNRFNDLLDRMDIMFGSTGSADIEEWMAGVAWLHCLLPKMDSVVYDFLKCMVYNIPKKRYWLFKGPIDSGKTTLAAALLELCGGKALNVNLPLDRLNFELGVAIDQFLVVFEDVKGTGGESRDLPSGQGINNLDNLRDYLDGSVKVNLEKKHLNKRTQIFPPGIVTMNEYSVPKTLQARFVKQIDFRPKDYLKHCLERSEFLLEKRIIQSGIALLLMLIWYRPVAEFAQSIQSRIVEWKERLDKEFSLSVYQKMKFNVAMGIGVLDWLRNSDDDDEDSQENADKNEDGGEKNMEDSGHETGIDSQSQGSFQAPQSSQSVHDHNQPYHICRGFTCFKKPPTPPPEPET

CCOC(=O)c1c(C)[nH]c(C)c1C(=O)COC(=O)[C@@H](NC(=O)c1ccccc1OCC)C(C)C
AC50 [1]: 3.71 µM (active) | AC50 [2]: 2.71 µM (active) | AC50 [3]: 5.72 µM (active) | AC50 [4]: 2.19 µM (active)

O=C(O)c1cccc(COc2ccc(CO)cc2Cl)c1
EC50 [5]: 0.375 µM (active) | AC50 [6]: 1.04 µM (active) | AC50 [7]: 35 µM (active) | AC50 [8]: > 52 µM (inactive) | AC50 [9]: 0.296 µM (active) | AC50 [10]: 0.274 µM (active)

CCCCNC(=O)c1c(N)n(Cc2ccc3c(c2)OCO3)c2nc3ccccc3nc12
EC50 (Protein RecA): 56.3 µM (active) | AC50 [11]: 19.4 µM (active)

CCOC(=O)C(NCCc1ccccc1F)(NC(=O)CC)C(F)(F)F (stereo not given)
IC50 (cells [12]): > 29.9 µM (inactive) | EC50 (cells [13]): > 29.9 µM (inactive)

N=C1/C(=C/c2ccc(OCc3ccccc3F)cc2)C(=O)N=C2SC(CC(=O)N3CCOCC3)=NN12
EC50 [14]: > 67.5 µM (inactive)

Brc1ccc(-c2noc(-c3ccccc3)n2)o1
IC50 (Protein skinhead-1): > 100 µM (inactive) | EC50 [14]: > 67.6 µM (inactive)

Cc1cc(C(=O)CSc2cccc[n+]2[O-])c(C)n1-c1ccccc1
EC50 [14]: > 67.5 µM (inactive)

C=CCNC1=NN=C(c2cc(C)n(CCOC)c2C)CS1
AC50 (HEK293): 2.08 µM (active) | AC50 [1]: 1.56 µM (active) | AC50 [2]: 8.09 µM (active) | AC50 [3]: 3.9 µM (active) | AC50 [4]: 4.19 µM (active)

Cc1cc(O)nc(SCC(=O)c2ccc(F)c(C)c2)n1
AC50 [15]: 26.9 µM (active)

Cc1ccc(S(=O)(=O)/N=C2\C=C(NS(=O)(=O)c3ccc(C)cc3)C(=O)c3ccccc32)cc1
IC50 (Genome polyprotein): 30.6 µM (active) | AC50 [11]: 2.98 µM (active)

O=c1c2ccccc2nnn1CCc1ccccc1
EC50 [14]: > 67.4 µM (inactive)

Cc1ccc(S(=O)(=O)Nc2ccc3c(c2)C(=O)N([C@@H](C)CO)C[C@H](C)[C@@H](CN(C)Cc2ccc(C(F)(F)F)cc2)OCCCC[C@@H](C)O3)cc1
AC50 (Paired box protein Pax-8): 5.99 µM (active) | AC50 [16]: 11.4 µM (active) | AC50 [17]: 33.1 µM (active) | AC50 [18]: 30.4 µM (active)

COc1cccc(-c2ccc([C@@H]3[C@H]4CNC[C@@H]3N4Cc3ccc4c(c3)OCO4)cc2)c1
AC50 [15]: 34.3 µM (active)

Cc1cc(N/N=C/c2ccc(O)cc2O)nc(N2CCOCC2)n1
IC50 (Large T antigen): > 100 µM (active) | IC50 (cells [12]): > 29.9 µM (inactive) | EC50 (cells [13]): > 29.9 µM (inactive)
